The results in this text go back to patent publication US10023602B2, “Hamamelitannin analogues and uses thereof” (Universiteit Gent, priority 2014, dated 2018).

Test [1] relates to methicillin resistant S. aureus Mu50 strain (S. aureus ATCC700699) biofilm. In words: Biofilm susceptibility to vancomycin, pre-treatment regimen (biofilm formed in presence of compound, then vancomycin). It counts as cell-based. The following applies: for Pretreat (100 μM): percentage Colony Forming Units (CFU's) per biofilm: compound 100 μM during biofilm formation; for Pretreat (100 μM): percentage Colony Forming Units (CFU's) per biofilm / Pretreat. (25 μM): percentage Colony Forming Units (CFU's) per biofilm: then VAN 20 μg/ml, compared to the untreated (negative) control; for EC50: concentration needed to get 50% killing compared to antibiotic alone (VAN 20 μg/ml) and complete killing, read-out: Pretreat. (EC50); for Pretreat. (25 μM): percentage Colony Forming Units (CFU's) per biofilm: compound 25 μM during biofilm formation. The method in brief: (§1)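 Mu50 biofilms from 10^8 CFU/ml inoculum (4 h adhesion, then 20 h, 37 °C). Pre-treatment: compound (0.1-250 μM) present during biofilm formation, then vancomycin 20 μg/ml alone 24 h; combination: mature biofilm given vancomycin 20 μg/ml plus compound 24 h. Survivors counted by plating versus vancomycin alone.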

The test system is the same in test [2]. In words: Biofilm susceptibility to vancomycin, combination treatment regimen (mature biofilm treated with compound plus vancomycin). It is filed as cell-based. As to conditions: for Combin. (100 μM): percentage Colony Forming Units (CFU's) per biofilm: compound 100 μM together with VAN 20 μg/ml on mature biofilm; for Combin. (100 μM): percentage Colony Forming Units (CFU's) per biofilm / Combin. (25 μM): percentage Colony Forming Units (CFU's) per biofilm: compared to the untreated (negative) control; for EC50: concentration needed to get 50% killing compared to antibiotic alone (VAN 20 μg/ml) and complete killing, read-out: Combin. (EC50); for Combin. (25 μM): percentage Colony Forming Units (CFU's) per biofilm: compound 25 μM together with VAN 20 μg/ml on mature biofilm. The method in brief:
as §1

Consider `O=C(NC[C@]1(O)CO[C@H](CNS(=O)(=O)c2ccc(-c3ccccc3)cc2)[C@H]1O)c1ccccc1` [compound 219, N-(((3S,4R,5R)-5-(([1,1′-biphenyl]-4-sulfonamido)methyl)-3,4-dihydroxytetrahydrofuran-3-yl)methyl)benzamide], for which, in test [1], the “Pretreat (100 μM): percentage Colony Forming Units (CFU's) per biofilm” value came out at 16.13 percentage. Further, the “Combin. (100 μM): percentage Colony Forming Units (CFU's) per biofilm” value in test [2] is given as 17.02 percentage.
As for `O=C(NC[C@]1(O)CO[C@H](CNC(=O)c2ccc(Cl)nc2Cl)[C@H]1O)c1ccccc1` [compound 197, N-(((2R,3R,4S)-4-(benzamidomethyl)-3,4-dihydroxytetrahydrofuran-2-yl)methyl)-2,6-dichloronicotinamide], in test [1], the “Pretreat (100 μM): percentage Colony Forming Units (CFU's) per biofilm” value is on record as 18.75 percentage and the EC50 turned out to be 7.92 µM. Also, in test [2], the “Combin. (100 μM): percentage Colony Forming Units (CFU's) per biofilm” value is on record as 16.84 percentage and the 50% effective concentration (EC50) turned out to be 8.27 µM.
Take `O=C(NC[C@]1(O)CO[C@H](CNC(=O)c2ccccc2Cl)[C@H]1O)c1ccc(C(F)(F)F)cc1` [compound 238, 2-chloro-N-(((2R,3R,4S)-3,4-dihydroxy-4-((4-(trifluoromethyl)benzamido)methyl)tetrahydrofuran-2-yl)methyl)benzamide]: in test [1], the “Pretreat. (25 μM): percentage Colony Forming Units (CFU's) per biofilm” value was determined as 45.03 percentage and the 50% effective concentration (EC50) worked out at 84.6 µM. Moreover, in test [2], the “Combin. (25 μM): percentage Colony Forming Units (CFU's) per biofilm” value was 68.51 percentage and the EC50 stood at 75.2 µM.
Consider `Cn1nccc1C(=O)NC[C@H]1OC[C@@](O)(CNC(=O)c2ccccc2)[C@@H]1O` [compound 209, N-(((2R,3R,4S)-4-(benzamidomethyl)-3,4-dihydroxytetrahydrofuran-2-yl)methyl)-1-methyl-1H-pyrazole-5-carboxamide], for which, in test [1], the “Pretreat (100 μM): percentage Colony Forming Units (CFU's) per biofilm” value was 22.47 percentage and the EC50 was determined as 29.3 µM. In test [2], the “Combin. (100 μM): percentage Colony Forming Units (CFU's) per biofilm” value came to 21.74 percentage and the EC50 came to 23.5 µM.
The like results for `O=C(NC[C@H]1OC[C@@](O)(CNC(=O)c2ccnnc2)[C@@H]1O)c1ccc(-c2ccccc2)cc1` [compound 256, N-(((3S,4R,5R)-5-([1,1′-biphenyl]-4-carboxamidomethyl)-3,4-dihydroxytetrahydrofuran-3-yl)methyl)pyridazine-4-carboxamide] were, in that order, 14.25 percentage, 15.5 µM, 29.97 percentage and 53.4 µM.
The like results for `O=C(NC[C@]1(O)CO[C@H](CNC(=O)c2c(Cl)cncc2Cl)[C@H]1O)c1ccccc1` [compound 195, N-(((2R,3R,4S)-4-(benzamidomethyl)-3,4-dihydroxytetrahydrofuran-2-yl)methyl)-3,5-dichloroisonicotinamide] were, in that order, 18.31 percentage, 7.2 µM, 18.55 percentage and 9.26 µM.
With `CN(C[C@]1(O)CO[C@H](CNC(=O)c2ccccc2)[C@H]1O)C(=O)c1ccccc1` [compound 229, N-(((3S,4R,5R)-5-(benzamidomethyl)-3,4-dihydroxytetrahydrofuran-3-yl)methyl)-N-methylbenzamide], in test [1], the “Pretreat (100 μM): percentage Colony Forming Units (CFU's) per biofilm” value was found to be 7.17 percentage and the EC50 was found to be 5.82 µM. Besides, in test [2], the “Combin. (100 μM): percentage Colony Forming Units (CFU's) per biofilm” value is reported as 11.15 percentage and the concentration for a half-maximal effect (EC50) stood at 8.92 µM.
Take `O=C(NC[C@H]1OC[C@@](O)(CNC(=O)c2ccccc2Cl)[C@@H]1O)c1ccnnc1` [compound 251, N-(((2R,3R,4S)-4-((2-chlorobenzamido)methyl)-3,4-dihydroxytetrahydrofuran-2-yl)methyl)pyridazine-4-carboxamide]: in test [1], the “Pretreat (100 μM): percentage Colony Forming Units (CFU's) per biofilm” value turned out to be 3.85 percentage and the EC50 was found to be 3.38 µM. Further, in test [2], the “Combin. (100 μM): percentage Colony Forming Units (CFU's) per biofilm” value is recorded as 37.03 percentage and the EC50 came out at 98.9 µM.
The like results for `O=C(NC[C@]1(O)CO[C@H](CNC(=O)c2ccccc2Cl)[C@H]1O)c1ccnnc1` [compound 255, N-(((3S,4R,5R)-5-((2-chlorobenzamido)methyl)-3,4-dihydroxytetrahydrofuran-3-yl)methyl)pyridazine-4-carboxamide] were, in that order, 8.03 percentage, 15 µM, 25.78 percentage and 55.7 µM.
The like results for `O=C(NC[C@@H]1OC[C@@](O)(CNC(=O)c2ccccc2)[C@@H]1O)c1ccccc1` [compound 270, N,N′-(((2S,3R,4S)-3,4-dihydroxytetrahydrofuran-2,4-diyl)bis(methylene))dibenzamide] were, in that order, 51.80 percentage, 224 µM, 55.70 percentage and more than 250 µM.
Regarding `O=C(NC[C@]1(O)CO[C@H](CNC(=O)c2ccccc2Cl)[C@H]1O)c1ccncc1` [compound 239, N-(((3S,4R,5R)-5-((2-chlorobenzamido)methyl)-3,4-dihydroxytetrahydrofuran-3-yl)methyl)isonicotinamide], in test [1], the “Pretreat. (25 μM): percentage Colony Forming Units (CFU's) per biofilm” value is on record as 49.98 percentage. Besides, in test [2], the “Combin. (25 μM): percentage Colony Forming Units (CFU's) per biofilm” value was determined as 58.76 percentage.
With `COc1ccc(C(=O)NC[C@H]2OC[C@@](O)(CNC(=O)c3ccccc3)[C@@H]2O)cc1` [compound 154, N-(((2R,3R,4S)-4-(benzamidomethyl)-3,4-dihydroxytetrahydrofuran-2-yl)methyl)-4-methoxybenzamide], the “Pretreat (100 μM): percentage Colony Forming Units (CFU's) per biofilm” value in test [1] is 19.34 percentage. The “Combin. (100 μM): percentage Colony Forming Units (CFU's) per biofilm” value in test [2] amounted to 22.56 percentage.
On to `N#Cc1cccc(C(=O)NC[C@H]2OC[C@@](O)(CNC(=O)c3ccccc3)[C@@H]2O)c1` [compound 164, N-(((2R,3R,4S)-4-(benzamidomethyl)-3,4-dihydroxytetrahydrofuran-2-yl)methyl)-3-cyanobenzamide], for which the “Pretreat (100 μM): percentage Colony Forming Units (CFU's) per biofilm” value in test [1] is 22.11 percentage. The “Combin. (100 μM): percentage Colony Forming Units (CFU's) per biofilm” value in test [2] is 14.49 percentage.
As to `O=C(NC[C@]1(O)CO[C@H](CNC(=O)c2ccccc2Cl)[C@H]1O)c1cccc(C(F)(F)F)c1` [compound 242, 2-chloro-N-(((2R,3R,4S)-3,4-dihydroxy-4-((3-(trifluoromethyl)benzamido)methyl)tetrahydrofuran-2-yl)methyl)benzamide], in test [1], the “Pretreat. (25 μM): percentage Colony Forming Units (CFU's) per biofilm” value is reported as 117.15 percentage. Further, the “Combin. (25 μM): percentage Colony Forming Units (CFU's) per biofilm” value in test [2] is recorded as 87.14 percentage.
Consider `O=C(NC[C@H]1OC[C@@](O)(CNC(=O)c2ccccc2)[C@@H]1O)c1cccnc1` [compound 167, N-(((2R,3R,4S)-4-(benzamidomethyl)-3,4-dihydroxytetrahydrofuran-2-yl)methyl)nicotinamide], for which the “Pretreat (100 μM): percentage Colony Forming Units (CFU's) per biofilm” value in test [1] stood at 9.813 percentage. In addition, the “Combin. (100 μM): percentage Colony Forming Units (CFU's) per biofilm” value in test [2] worked out at 15.22 percentage.
In the case of `N#Cc1ccc(C(=O)NC[C@]2(O)CO[C@H](CNC(=O)c3ccccc3Cl)[C@H]2O)cc1` [compound 236, 2-chloro-N-(((2R,3R,4S)-4-((4-cyanobenzamido)methyl)-3,4-dihydroxytetrahydrofuran-2-yl)methyl)benzamide], in test [1], the “Pretreat. (25 μM): percentage Colony Forming Units (CFU's) per biofilm” value was found to be 73.00 percentage. In addition, the “Combin. (25 μM): percentage Colony Forming Units (CFU's) per biofilm” value in test [2] is given as 70.73 percentage.
For the compound `Cn1cncc1C(=O)NC[C@H]1OC[C@@](O)(CNC(=O)c2ccccc2)[C@@H]1O` [compound 210, N-(((2R,3R,4S)-4-(benzamidomethyl)-3,4-dihydroxytetrahydrofuran-2-yl)methyl)-1-methyl-1H-imidazole-5-carboxamide], in test [1], the “Pretreat (100 μM): percentage Colony Forming Units (CFU's) per biofilm” value is reported as 22.10 percentage and the concentration giving a half-maximal response (EC50) came to 52.3 µM. Besides, in test [2], the “Combin. (100 μM): percentage Colony Forming Units (CFU's) per biofilm” value was determined as 26.95 percentage and the half-maximal effective concentration (EC50) worked out at 58.2 µM.
Take `O=C(NC[C@]1(O)CO[C@H](CNC(=O)c2ccccc2Cl)[C@H]1O)c1ccoc1` [compound 247, N-(((3S,4R,5R)-5-((2-chlorobenzamido)methyl)-3,4-dihydroxytetrahydrofuran-3-yl)methyl)furan-3-carboxamide]: in test [1], the “Pretreat. (25 μM): percentage Colony Forming Units (CFU's) per biofilm” value is listed as 42.14 percentage and the EC50 is 68.5 µM. In test [2], the “Combin. (25 μM): percentage Colony Forming Units (CFU's) per biofilm” value is reported as 49.94 percentage and the concentration giving a half-maximal response (EC50) is 76.7 µM.
On to `O=C(NC[C@H]1OC(O)[C@@](O)(CNC(=O)c2ccc(O)cc2)[C@@H]1O)c1ccc(O)cc1` (stereo partly drawn) [compound 20, N,N′-(((2R,3R,4R)-3,4,5-trihydroxytetrahydrofuran-2,4-diyl)bis(methylene))bis(4-hydroxybenzamide)], for which, in test [1], the “Pretreat (100 μM): percentage Colony Forming Units (CFU's) per biofilm” value is recorded as 19.78 percentage and the 50% effective concentration (EC50) was 85.6 µM. Also, in test [2], the “Combin. (100 μM): percentage Colony Forming Units (CFU's) per biofilm” value came to 27.23 percentage and the EC50 was found to be 52.3 µM.
